From article PMC6272942, “Lead Discovery of Type II BRAF V600E Inhibitors Targeting the Structurally Validated DFG-Out Conformation Based upon Selected Fragments” (Molecules, 2016)

Target: BRAF V600E (Homo sapiens, UniProt P15056, V600E)
Assay: LanthaScreen biochemical kinase assay

Chain of BRAF V600E (P15056 whole entry V600E): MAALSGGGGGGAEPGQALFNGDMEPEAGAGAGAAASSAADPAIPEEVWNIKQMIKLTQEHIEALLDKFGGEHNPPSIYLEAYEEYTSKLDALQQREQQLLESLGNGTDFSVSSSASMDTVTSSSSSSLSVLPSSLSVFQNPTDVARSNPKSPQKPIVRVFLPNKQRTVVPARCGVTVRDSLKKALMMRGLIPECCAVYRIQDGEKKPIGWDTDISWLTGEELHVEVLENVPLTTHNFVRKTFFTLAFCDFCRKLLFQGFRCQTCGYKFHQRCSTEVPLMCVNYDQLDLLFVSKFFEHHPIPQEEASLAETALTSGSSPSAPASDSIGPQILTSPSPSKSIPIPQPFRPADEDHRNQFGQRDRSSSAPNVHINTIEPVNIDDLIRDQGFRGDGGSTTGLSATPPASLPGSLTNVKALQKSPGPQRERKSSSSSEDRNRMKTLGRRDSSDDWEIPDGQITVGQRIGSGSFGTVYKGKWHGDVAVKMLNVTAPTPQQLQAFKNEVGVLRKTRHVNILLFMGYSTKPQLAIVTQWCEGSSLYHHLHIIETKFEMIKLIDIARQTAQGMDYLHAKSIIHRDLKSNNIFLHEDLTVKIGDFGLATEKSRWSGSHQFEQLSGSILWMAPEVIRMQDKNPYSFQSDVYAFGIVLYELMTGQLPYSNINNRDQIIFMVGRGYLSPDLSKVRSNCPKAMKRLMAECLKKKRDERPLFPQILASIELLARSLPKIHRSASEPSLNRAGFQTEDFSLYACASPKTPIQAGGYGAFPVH

Row | IC50 [µM] | Compound
1 | 0.298 | Cc1nc(Nc2cccc(NC(=O)Nc3cc(F)ccc3C)c2)cc(N2CCOCC2)n1 [SI-046, 1-(5-Fluoro-2-methylphenyl)-3-(3-(2-methyl-6-morpholinopyrimidin-4-ylamino)phenyl)urea]
2 | 0.685 | Cc1nc(Nc2ccc(NC(=O)Nc3ccc(F)c(Cl)c3)cc2)cc(N2CCOCC2)n1 [SI-008, 1-(3-Chloro-4-fluorophenyl)-3-(4-(2-methyl-6-morpholinopyrimidin-4-ylamino)phenyl)urea]
